Data taken from ChEMBL document CHEMBL1124016, “Antihypertensive activity in a series of 1-piperazino-3-phenylindans with potent 5-HT2-antagonistic activity” (J Med Chem, 1988).

What was measured:
Rattus norvegicus [1] = organism: Rattus norvegicus; assay: Inhibition of L-5-HTP (L-5-hydroxytryptophan) induced head twitches in rat; assay type: functional
[2] = molecular target: T1, Adrenergic receptor alpha-1 (Rattus norvegicus, UniProt P15823+P23944+P43140); assay: Inhibition of [3H]prazosin binding to alpha-1 adrenergic receptor from rat cortical membranes; assay type: cell membranes, Membrane
T1 sequence (P15823 whole entry): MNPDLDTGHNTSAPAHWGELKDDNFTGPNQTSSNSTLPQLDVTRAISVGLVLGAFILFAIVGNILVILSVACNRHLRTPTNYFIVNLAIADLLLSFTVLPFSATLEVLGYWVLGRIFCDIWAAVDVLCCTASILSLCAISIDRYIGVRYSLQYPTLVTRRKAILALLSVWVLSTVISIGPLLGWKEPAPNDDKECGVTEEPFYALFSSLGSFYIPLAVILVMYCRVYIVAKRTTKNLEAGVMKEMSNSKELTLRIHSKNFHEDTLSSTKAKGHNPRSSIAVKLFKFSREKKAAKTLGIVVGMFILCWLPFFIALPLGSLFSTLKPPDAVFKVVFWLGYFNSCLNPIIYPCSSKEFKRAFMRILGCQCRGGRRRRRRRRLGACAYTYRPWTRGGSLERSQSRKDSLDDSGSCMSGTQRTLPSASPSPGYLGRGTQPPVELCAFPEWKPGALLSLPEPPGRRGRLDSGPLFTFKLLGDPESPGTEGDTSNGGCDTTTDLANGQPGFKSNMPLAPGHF
T1 sequence (P23944 whole entry): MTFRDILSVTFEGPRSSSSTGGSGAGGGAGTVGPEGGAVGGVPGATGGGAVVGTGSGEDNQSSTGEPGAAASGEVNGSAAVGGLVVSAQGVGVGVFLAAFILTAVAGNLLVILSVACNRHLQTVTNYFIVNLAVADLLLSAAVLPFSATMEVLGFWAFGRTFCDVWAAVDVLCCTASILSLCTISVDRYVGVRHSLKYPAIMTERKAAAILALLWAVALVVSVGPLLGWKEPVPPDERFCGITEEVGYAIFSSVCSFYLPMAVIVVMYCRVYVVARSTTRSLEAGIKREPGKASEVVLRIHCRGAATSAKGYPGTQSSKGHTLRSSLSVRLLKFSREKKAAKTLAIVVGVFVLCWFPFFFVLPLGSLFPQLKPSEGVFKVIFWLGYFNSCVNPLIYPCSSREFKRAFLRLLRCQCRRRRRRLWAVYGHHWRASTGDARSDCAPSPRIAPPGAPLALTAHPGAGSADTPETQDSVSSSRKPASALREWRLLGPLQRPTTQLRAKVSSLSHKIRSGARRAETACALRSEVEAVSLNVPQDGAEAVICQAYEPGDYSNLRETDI
T1 sequence (P43140 whole entry): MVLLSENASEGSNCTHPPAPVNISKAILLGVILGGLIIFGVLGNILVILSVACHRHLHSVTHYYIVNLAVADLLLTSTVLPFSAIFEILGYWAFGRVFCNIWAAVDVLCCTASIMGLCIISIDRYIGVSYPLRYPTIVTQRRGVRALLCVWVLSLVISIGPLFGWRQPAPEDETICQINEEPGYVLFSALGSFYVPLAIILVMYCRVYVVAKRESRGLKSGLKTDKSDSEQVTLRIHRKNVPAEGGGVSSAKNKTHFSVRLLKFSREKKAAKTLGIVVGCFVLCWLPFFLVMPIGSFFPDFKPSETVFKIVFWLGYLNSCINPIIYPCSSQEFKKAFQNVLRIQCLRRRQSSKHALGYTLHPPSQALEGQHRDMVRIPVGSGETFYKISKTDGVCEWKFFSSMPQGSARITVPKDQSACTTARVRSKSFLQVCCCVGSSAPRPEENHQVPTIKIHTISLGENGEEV

Rattus norvegicus [3] = assay: Inhibition of 5-HT induced pressor response in pithed rats, after intravenous administration, activity is expressed as ED50; assay type: functional
Mus musculus = organism: Mus musculus; assay: Inhibition of methyl phenidate induced stereotyped gnawing in mice; assay type: functional
[4] = molecular target: Serotonin 2 (5-HT2) receptor (Rattus norvegicus, UniProt P30994+P08909+P14842); assay: Inhibition of [3H]spiperone binding to 5-hydroxytryptamine 2 receptor from rat cortical membranes; assay type: cell membranes, Membrane
Rattus norvegicus [5] = assay: Inhibition of 5-HT induced pressor response in pithed rats, after intravenous administration of 0.02 mg/kg; assay type: functional
Rattus norvegicus [6] = assay: Inhibition of 5-HT induced pressor response in pithed rats, after intravenous administration; assay type: functional
Rattus norvegicus [7] = assay: Percent reduction of diastolic arterial blood pressure(DAP) in spontaneously hypertensive rat after 10 min at intraperitoneal administration of 5 mg/kg; assay type: functional
D(2) dopamine receptor = D(2) dopamine receptor (Rattus norvegicus, UniProt P61169); assay: Inhibition of [3H]spiperone binding to Dopamine receptor D2 from rat striatal membranes; assay type: cell membranes, Membrane
Rattus norvegicus [8] = assay: Percent reduction of systolic arterial blood pressure(SAP) in spontaneously hypertensive rat after 10 min at intraperitoneal administration of 5 mg/kg; assay type: functional
Rattus norvegicus [9] = assay: Inhibition of phenylephrine induced pressor response in pithed rats (following i.v. administration of […]); assay type: functional; conditions: route intravenous
Rattus norvegicus [10] = organism: Rattus norvegicus; assay: Ratio of phenylephrine ED50/ 5-HT ED50; assay type: functional
[11] = molecular target: Sodium-dependent serotonin transporter (Rattus norvegicus, UniProt P31652); assay: In vitro inhibition of [3H]5-HT transporter uptake in rat brain synaptosomes; assay type: subcellular
[12] = molecular target: Sodium-dependent dopamine transporter (Rattus norvegicus, UniProt P23977); assay: In vitro inhibition of [3H]dopamine uptake in rat brain synaptosomes; assay type: subcellular
Rattus norvegicus [13] = assay: Percent reduction of blood pressure in spontaneously hypertensive rat after 10 min at intraperitoneal administration of 5 mg/kg; assay type: functional
[14] = molecular target: Norepinephrine transporter (Rattus norvegicus, UniProt Q9WTR4); assay: In vitro inhibition of [3H]norepinephrine uptake in rat brain synaptosomes; assay type: subcellular
[15] = Rattus norvegicus, read-out: ED50

Chain of Sodium-dependent serotonin transporter (P31652 whole entry): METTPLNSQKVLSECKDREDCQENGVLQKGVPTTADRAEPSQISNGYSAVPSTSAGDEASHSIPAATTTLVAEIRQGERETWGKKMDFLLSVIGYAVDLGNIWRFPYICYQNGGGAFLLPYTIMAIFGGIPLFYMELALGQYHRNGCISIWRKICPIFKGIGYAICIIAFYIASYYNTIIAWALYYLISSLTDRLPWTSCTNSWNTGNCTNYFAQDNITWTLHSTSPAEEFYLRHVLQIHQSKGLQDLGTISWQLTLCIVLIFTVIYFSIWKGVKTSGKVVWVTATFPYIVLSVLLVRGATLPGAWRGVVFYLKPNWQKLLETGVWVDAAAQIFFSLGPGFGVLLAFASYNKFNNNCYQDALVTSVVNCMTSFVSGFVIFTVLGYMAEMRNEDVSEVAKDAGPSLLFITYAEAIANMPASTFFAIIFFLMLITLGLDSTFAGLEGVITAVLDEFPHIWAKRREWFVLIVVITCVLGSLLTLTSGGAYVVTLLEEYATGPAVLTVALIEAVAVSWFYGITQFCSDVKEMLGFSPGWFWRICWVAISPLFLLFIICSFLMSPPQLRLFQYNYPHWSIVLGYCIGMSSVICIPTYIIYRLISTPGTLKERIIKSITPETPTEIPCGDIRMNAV
Chain of D(2) dopamine receptor (P61169 whole entry): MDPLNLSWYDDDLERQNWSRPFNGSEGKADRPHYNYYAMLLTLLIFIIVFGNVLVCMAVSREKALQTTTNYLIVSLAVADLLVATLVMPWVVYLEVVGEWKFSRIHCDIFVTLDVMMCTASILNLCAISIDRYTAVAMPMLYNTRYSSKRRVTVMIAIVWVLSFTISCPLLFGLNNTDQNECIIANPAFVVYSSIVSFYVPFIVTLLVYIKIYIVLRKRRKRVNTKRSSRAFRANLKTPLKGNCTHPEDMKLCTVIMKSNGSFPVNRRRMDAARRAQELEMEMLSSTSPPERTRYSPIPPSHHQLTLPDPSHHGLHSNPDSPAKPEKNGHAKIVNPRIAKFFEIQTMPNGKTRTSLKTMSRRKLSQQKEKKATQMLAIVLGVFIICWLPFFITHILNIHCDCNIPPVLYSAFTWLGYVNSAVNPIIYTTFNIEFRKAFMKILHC
Chain of Norepinephrine transporter (Q9WTR4 whole entry): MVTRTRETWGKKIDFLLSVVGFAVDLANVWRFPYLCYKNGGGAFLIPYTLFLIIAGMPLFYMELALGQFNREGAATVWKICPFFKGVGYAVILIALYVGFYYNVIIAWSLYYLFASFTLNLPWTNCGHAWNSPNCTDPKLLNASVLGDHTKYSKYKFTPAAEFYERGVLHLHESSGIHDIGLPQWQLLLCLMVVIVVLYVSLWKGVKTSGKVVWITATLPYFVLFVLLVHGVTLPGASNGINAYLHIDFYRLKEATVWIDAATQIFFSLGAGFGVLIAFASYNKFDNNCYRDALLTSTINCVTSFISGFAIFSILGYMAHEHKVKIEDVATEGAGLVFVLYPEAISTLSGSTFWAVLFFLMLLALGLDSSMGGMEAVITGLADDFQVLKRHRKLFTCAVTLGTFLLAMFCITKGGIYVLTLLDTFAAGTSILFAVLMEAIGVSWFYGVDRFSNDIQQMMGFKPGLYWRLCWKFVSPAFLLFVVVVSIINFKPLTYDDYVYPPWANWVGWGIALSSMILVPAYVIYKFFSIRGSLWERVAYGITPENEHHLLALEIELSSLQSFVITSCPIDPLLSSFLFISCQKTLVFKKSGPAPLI
Chain of Sodium-dependent dopamine transporter (P23977 whole entry): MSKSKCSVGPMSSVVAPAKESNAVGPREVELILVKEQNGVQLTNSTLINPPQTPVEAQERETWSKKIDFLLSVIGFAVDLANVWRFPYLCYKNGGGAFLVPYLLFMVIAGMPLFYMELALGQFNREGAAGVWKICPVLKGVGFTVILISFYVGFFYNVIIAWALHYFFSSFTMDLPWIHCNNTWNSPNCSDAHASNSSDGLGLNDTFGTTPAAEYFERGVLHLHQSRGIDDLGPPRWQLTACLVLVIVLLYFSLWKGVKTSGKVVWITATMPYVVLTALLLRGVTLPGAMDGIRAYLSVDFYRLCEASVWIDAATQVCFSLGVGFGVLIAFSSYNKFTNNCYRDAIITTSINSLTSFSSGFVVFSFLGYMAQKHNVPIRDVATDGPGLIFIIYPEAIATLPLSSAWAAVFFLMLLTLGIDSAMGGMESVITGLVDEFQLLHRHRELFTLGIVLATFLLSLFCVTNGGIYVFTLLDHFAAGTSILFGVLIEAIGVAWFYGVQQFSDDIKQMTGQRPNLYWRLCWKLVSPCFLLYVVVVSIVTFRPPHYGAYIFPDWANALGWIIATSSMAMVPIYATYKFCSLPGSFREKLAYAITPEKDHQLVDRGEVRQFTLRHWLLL

| IC50 [2] | IC50 [4] | SMILES | ED50 (Rattus norvegicus [1]) | ED50 (Rattus norvegicus [3]) | ED50 (Mus musculus) | Change (Rattus norvegicus [5]) | Reduction (Rattus norvegicus [7]) | IC50 (D(2) dopamine receptor) | Reduction (Rattus norvegicus [8]) | Change (Rattus norvegicus [9]) | Ratio (Rattus norvegicus [10]) | IC50 [11] | IC50 [12] | IC50 [14] | also measured |
| --- | --- | --- | --- | --- | --- | --- | --- | --- | --- | --- | --- | --- | --- | --- | --- |
| 5.3 nM | 2.9 nM | O.O=c1[nH]c2ccccc2c(=O)n1CCN1CCN(C2CC(c3ccc(F)cc3)c3ccc(F)cc32)CC1 (stereo not given) | 2.3 µmol/kg | 0.43 µmol/kg | > 79 µmol/kg | -52% | -46% | 19 nM | -29% | -57% | 13 |  |  |  | ED50 (Rattus norvegicus [6]): 0.032 µmol/kg |
| 85 nM | 43 nM | CN1CCN([C@H]2C[C@H](c3ccc(F)cc3)c3ccc(F)cc32)CC1 |  |  | 42 µmol/kg | -43% |  |  |  | 5% |  | 610 nM | 81 nM | 28 nM | ED50 (Rattus norvegicus [1]; [15]): 0.49 µmol/kg; Reduction (Rattus norvegicus [13]): -5% |
| 560 nM | 310 nM | O.OC1=NCCN1CCN1CCN(C2CC(c3ccc(O)cc3)c3ccccc32)CC1 (stereo not given) | > 49 µmol/kg |  | > 98 µmol/kg | -5% | -6% | 4000 nM | -6% | 22% |  |  |  |  |  |
| 9.3 nM | 4.9 nM | CN1CCN([C@@H]2C[C@@H](c3ccc(F)cc3)c3ccc(F)cc32)CC1 |  |  | 2.5 µmol/kg | -79% |  |  |  | -48% |  | 3900 nM | 1700 nM | 12000 nM | ED50 (Rattus norvegicus [1]; [15]): 0.13 µmol/kg; Reduction (Rattus norvegicus [13]): -28% |
| 12 nM | 5.6 nM | Cl.Cl.OC1=NCCN1CCCN1CCN(C2CC(c3ccc(F)cc3)c3ccc(F)cc32)CC1 (stereo not given) | 2 µmol/kg | 2.7 µmol/kg | 55 µmol/kg |  | -19% | 46 nM | -12% |  | 87 |  |  |  |  |
| 17 nM | 8.4 nM | OCCN1CCN([C@@H]2C[C@@H](c3ccc(F)cc3)c3ccc(C(F)(F)F)cc32)CC1 (racemic) [TEFLUDAZINE] |  | 2.4 µmol/kg | 0.071 µmol/kg |  | -24% | 16 nM | -18% |  | 69 |  |  |  | ED50 (Rattus norvegicus [6]): 0.035 µmol/kg |

| SMILES | IC50 [2] | IC50 [4] | ED50 (Rattus norvegicus [1]) | ED50 (Rattus norvegicus [3]) | ED50 (Mus musculus) | Change (Rattus norvegicus [5]) | Reduction (Rattus norvegicus [7]) | IC50 (D(2) dopamine receptor) | Reduction (Rattus norvegicus [8]) | Change (Rattus norvegicus [9]) | Ratio (Rattus norvegicus [10]) | IC50 [11] | IC50 [12] | IC50 [14] | also measured |
| --- | --- | --- | --- | --- | --- | --- | --- | --- | --- | --- | --- | --- | --- | --- | --- |
| Fc1ccc([C@H]2C[C@H](N3CCNCC3)c3ccccc32)cc1.O=C(O)/C=C\C(=O)O.O=C(O)/C=C\C(=O)O | 540 nM | 180 nM |  |  | > 76 µmol/kg | -3% |  | 8500 nM |  | 41% |  | 400 nM | 220 nM | 140 nM | ED50 (Rattus norvegicus [1]; [15]): 13 µmol/kg; Reduction (Rattus norvegicus [13]): -2% |
| CN1CCN(CCN2CCN([C@H]3C[C@H](c4ccc(F)cc4)c4ccc(F)cc43)CC2)C1=O | 1300 nM | 410 nM | > 45 µmol/kg |  | > 91 µmol/kg | -6% | -1% | 8500 nM |  | 72% |  |  |  |  | Increase (Rattus norvegicus [8]): 1% |
| O=C1NCCN1CCN1CCN(C2CC(c3ccc(F)cc3)c3ccc(F)cc32)CC1 (stereo not given) | 24 nM | 6.5 nM |  | 2.6 µmol/kg | > 47 µmol/kg |  | -19% | 200 nM | -13% |  | 153 |  |  |  |  |
| O=C1NCCN1CCN1CCN(C2CC(c3ccc(F)cc3)c3ccccc32)CC1 (stereo not given) | 33 nM | 4.2 nM |  | 3.1 µmol/kg | > 98 µmol/kg |  | -43% | 930 nM | -33% |  | 129 |  |  |  |  |
| O=C1NCCN1CCN1CCN([C@@H]2C[C@@H](c3ccc(F)cc3)c3ccccc32)CC1 (stereo in doubt; 27) [IRINDALONE] | 670 nM | 520 nM | >196 µM/kg |  |  |  |  | 4600 nM |  |  |  | > 100000 nM | 100 nM | 44 nM | Change (Rattus norvegicus [5]; 0.02 mg/kg): -3%; Change (Rattus norvegicus [9]; […]): 33%; Reduction (Rattus norvegicus [13]; 5 mg/kg): -3% |
